What was measured:
corn = assay: Greenhouse pre-emergence GR15/GR85 selectivity test; assay type: in vivo
Text: (§1) A good grade of top soil is placed in aluminum pans and compacted to a depth of three-eighths to one-half inch from the top of the pan. On the top of the soil is placed a number of seeds or vegetative propagules of various plant species. The soil required to level fill the pans after seeding or adding vegetative propagules is weighed into a pan. The soil and a known amount of the active ingredient applied in a solvent or as a wettable powder suspension are thoroughly mixed, and used to cover the prepared pans. After treatment, the pans are given an initial overhead irrigation of eater, equivalent to one-fourth inch (0.64 cm) rainfall, then watered by subirrigation as need to give adequate moisture for germination and growth. As an alternative procedure, the overhead irrigation may be omitted. Observations are made about 2-3 weeks after seeding and treatment.
(§2) In the discussion and tables of data below, reference is made to herbicide application rates symbolized as "GR15 " and "GR85 "; these rates are given in kilograms per hectare (kg/ha) which are convertible into pounds per acre (lbs/A) by dividing the kg/ha rate by 1.12.
(§3) A further guide to the effectiveness of a chemical as a selective herbicide is the "selectivity factor" ("SF") for a herbicide in given crops and weeds. The selectivity factor is a measure of the relative degree of crop safety and weed injury and is expressed in terms of the GR15 /GR85 ratio, i.e., the GR15 rate for the crop divided by the GR85 rate for the weed, both rates in kg/ha (lb/A). In the tables below, selectivity factors are shown in parenthesis following the GR85 rate for each weed; the symbol "NS" indicates "non-selective". Marginal or undetermined selectivity is indicated by a dash (--).
In Table IV pre-emergence herbicidal activity data are presented comparing the relative efficacy of the invention compounds and said prior art compounds as selective herbicides against the resistant and troublesome perennial weeds quackgrass and yellow nutsedge in soybeans and corn, respectively. These weeds are commonly associated with such major crops as corn and soybeans. The test data in Table IV were obtained under identical procedural conditions and represent two replicate runs (except for the compound of Example 9 which was present in one comparative test). The test procedure was the same as described for Tables II and III but modified by the application of an initial overhead irrigation equivalent to 1/4" (0.64 cm) rainfall; subsequent watering was accomplished by subirrigation. "NS" means non-selective within the test limits.
(§4) Additionally, pre-emergence herbicidal data from other tests have established that compounds according to this invention also selectively suppress quackgrass, yellow nutsedge and/or other weeds in one or more of the crops cotton, peanuts, bush beans and/or rape. For example, in Table VI are presented data showing the herbicidal selectivity of the compounds of Examples 1 and 2 against quackgrass in rape and snap beans. Unless otherwise noted; greenhouse tests in Table VI and in other tables below involved herbicide treatments by soil incorporation and an initial overhead irrigation followed by subirrigation as described above.

wild proso millet = assay: as above; assay type: in vivo, wild proso millet (panicum milicaeum)
Text: as §1, with “After treatment, the pans are given an initial overhead irrigation of eater, equivalent to one-fourth inch (0.64 cm) rainfall, then watered by subirrigation as need to give adequate moisture for germination and growth.” left out
as §3
(§5) Unless otherwise noted; greenhouse tests in Table VI and in other tables below involved herbicide treatments by soil incorporation and an initial overhead irrigation followed by subirrigation as described above.

purple nutsedge = assay: as above; assay type: in vivo; conditions: Table XV; for selectivity factor (GR15/GR85): in rape
Text: as §1, §2, §3, §4
In other greenhouse tests, compounds according to this invention have shown selective control of a variety of annual and perennial weeds in various crops. As further illustrative, the compound of Example 1 selectively controlled purple nutsedge in both corn nd soybeans, the respective crop/weed GR15 /GR85 ratios (expressed in kg/ha) being 0.67/0.25 (S.F.=2.7) in corn and 1.1/0.25 (S.F.=4.5) in soybeans. The compound of Example 8 has shown selective control of yellow nutsedge and quackgrass in corn and soybeans. The respective crop/yellownutsedge GR15 /GR85 ratios being >2.2/0.95 (S.F.=2.5) in corn; 2.2/0.5 (SF=4.5) in soybeans and the respective GR15 /GR85 ratios for both corn and soybeans in quackgrass being >2.2/0.5 (S.F.=4.5). In a test against yellow nutsedge in cotton, the GR15 /GR85 ratio (average of two replicates) was 2.0/0.95 (S.F.=2).
(§6) In another greenhouse test, the compounds of Examples 3-5, 9 and 10 were tested for their herbicidal efficacy against a variety of resistant annual and perennial weeds in rape.

rape = assay: as above; assay type: in vivo
Text: as §1, §2, §3, §4, §6

seedling johnsongrass = assay: as above; assay type: in vivo
Text: as §1, with “After treatment, the pans are given an initial overhead irrigation of eater, equivalent to one-fourth inch (0.64 cm) rainfall, then watered by subirrigation as need to give adequate moisture for germination and growth.” left out
as §3, §5

shattercane = assay: as above; assay type: in vivo
Text: as §1, with “After treatment, the pans are given an initial overhead irrigation of eater, equivalent to one-fourth inch (0.64 cm) rainfall, then watered by subirrigation as need to give adequate moisture for germination and growth.” left out
as §3, §5

red rice = assay: as above; assay type: in vivo
Text: as §1, with “After treatment, the pans are given an initial overhead irrigation of eater, equivalent to one-fourth inch (0.64 cm) rainfall, then watered by subirrigation as need to give adequate moisture for germination and growth.” left out
as §3, §5

alexandergrass = assay: as above; assay type: in vivo; conditions: for selectivity factor (GR15/GR85): in rape
Text: as §1, with “After treatment, the pans are given an initial overhead irrigation of eater, equivalent to one-fourth inch (0.64 cm) rainfall, then watered by subirrigation as need to give adequate moisture for germination and growth.” left out
as §3, §5

fall panicum = assay: as above; assay type: in vivo
Text: as §1, with “After treatment, the pans are given an initial overhead irrigation of eater, equivalent to one-fourth inch (0.64 cm) rainfall, then watered by subirrigation as need to give adequate moisture for germination and growth.” left out
as §3, §5

Texas panicum = assay: as above; assay type: in vivo
Text: as §1, with “After treatment, the pans are given an initial overhead irrigation of eater, equivalent to one-fourth inch (0.64 cm) rainfall, then watered by subirrigation as need to give adequate moisture for germination and growth.” left out
as §3, §5

itchgrass = assay: as above; assay type: in vivo
Text: as §1, with “After treatment, the pans are given an initial overhead irrigation of eater, equivalent to one-fourth inch (0.64 cm) rainfall, then watered by subirrigation as need to give adequate moisture for germination and growth.” left out
as §3, §5

soybeans = assay: Herbicidal effect in a variety of soil types; assay type: in vivo
Quackgrass = assay: Herbicidal effect in a variety of soil types; assay type: in vivo; conditions: for selectivity factor (GR15/GR85): in soybeans
Text: The herbicide treatments were by soil incorporation with seeds planted 0.375 in (0.95 cm) deep, with 0.25 in (0.64 cm overhead irrigation. Observations were made about three weeks after treatment. Selectivity factors are shown in parenthesis.

[1] = Drummer silty clay, Table XVII B
[2] = Wabash silty clay, Table XVII B
[3] = Drummer silty clay, Table XVII A

CCCOCN(C(=O)CCl)c1c(CC)cccc1C(F)(F)F [Example 10, N--(n-propoxymethyl)-2'-trifluoromethyl-6'-ethyl-2-chloroacetanilide]
GR15 (corn; Table XII): 1.7 Kg/Ha
GR15 (corn; Table XIII): 2.5 Kg/Ha
GR85 Rate (wild proso millet; Table XVI): 0.80 Kg/Ha
selectivity factor (GR15/GR85) (wild proso millet; in lima beans, Table XVI): > 1.4
selectivity factor (GR15/GR85) (wild proso millet; in peanuts, Table XVI): 1.2
GR85 Rate (purple nutsedge): 0.18 Kg/Ha
selectivity factor (GR15/GR85) (purple nutsedge): > 6.2
GR15 Rate (rape; Table XV): > 1.12 Kg/Ha
GR85 Rate (seedling johnsongrass; Table XVI): 0.36 Kg/Ha
selectivity factor (GR15/GR85) (seedling johnsongrass; in lima beans, Table XVI): > 3.1
selectivity factor (GR15/GR85) (seedling johnsongrass; in peanuts, Table XVI): 2.7
GR85 Rate (shattercane; Table XVI): 0.56 Kg/Ha
selectivity factor (GR15/GR85) (shattercane; in lima beans, Table XVI): > 2
selectivity factor (GR15/GR85) (shattercane; in peanuts, Table XVI): 1.8
GR85 Rate (red rice; Table XVI): 0.98 Kg/Ha
selectivity factor (GR15/GR85) (red rice; in lima beans, Table XVI): > 1.1
selectivity factor (GR15/GR85) (red rice; in peanuts, Table XVI): 1
GR85 Rate (alexandergrass; Table XV): 0.36 Kg/Ha
selectivity factor (GR15/GR85) (alexandergrass; Table XV): > 3.1
GR85 Rate (fall panicum; Table XVI): 0.22 Kg/Ha
selectivity factor (GR15/GR85) (fall panicum; in lima beans, Table XVI): > 5.1
selectivity factor (GR15/GR85) (fall panicum; in peanuts, Table XVI): 4.5
GR85 Rate (Texas panicum; Table XVI): 1.1 Kg/Ha
selectivity factor (GR15/GR85) (Texas panicum; in lima beans, Table XVI): > 1
selectivity factor (GR15/GR85) (Texas panicum; in peanuts, Table XVI): NS (non-selective)
GR85 Rate (itchgrass; Table XVI): 0.90 Kg/Ha
selectivity factor (GR15/GR85) (itchgrass; in lima beans, Table XVI): > 1.2
selectivity factor (GR15/GR85) (itchgrass; in peanuts, Table XVI): 1.1

Cc1cccc(C(F)(F)F)c1N(COCC(C)C)C(=O)CCl [Example 5, N--(isobutoxymethyl)-2'-trifluoromethyl-6'-methyl-2-chloroacetanilide]
GR15 (soybeans; [1]): 2.2 Kg/Ha
GR15 (soybeans; Florida muck, Table XVII B): > 2.0 Kg/Ha
GR15 (soybeans; Florida sand, Table XVII B): 3.0 Kg/Ha
GR15 (soybeans; Ray silt loam, Table XVII B): 2.0 Kg/Ha
GR15 (soybeans; Sarpy silty clay, Table XVII B): 3.0 Kg/Ha
GR15 (soybeans; [2]): 2.2 Kg/Ha
GR85 Rate (wild proso millet; Table XVI): 0.56 Kg/Ha
selectivity factor (GR15/GR85) (wild proso millet; in lima beans, Table XVI): > 2
selectivity factor (GR15/GR85) (wild proso millet; in peanuts, Table XVI): 1
GR85 Rate (purple nutsedge): 0.23 Kg/Ha
selectivity factor (GR15/GR85) (purple nutsedge): > 4.9
GR15 Rate (rape; Table XV): > 1.12 Kg/Ha
GR85 (Quackgrass; [1]): 1.1 Kg/Ha
GR85 (Quackgrass; Florida muck, Table XVII B): 3.0 Kg/Ha
GR85 (Quackgrass; Florida sand, Table XVII B): 1.1 Kg/Ha
GR85 (Quackgrass; Ray silt loam, Table XVII B): > 2.2 Kg/Ha
GR85 (Quackgrass; Sarpy silty clay, Table XVII B): 1.6 Kg/Ha
GR85 (Quackgrass; [2]): 1.6 Kg/Ha
selectivity factor (GR15/GR85) (Quackgrass; [1]): 2
selectivity factor (GR15/GR85) (Quackgrass; Florida sand, Table XVII B): 3
selectivity factor (GR15/GR85) (Quackgrass; Ray silt loam, Table XVII B): NS (non-selective)
selectivity factor (GR15/GR85) (Quackgrass; Sarpy silty clay, Table XVII B): 2
selectivity factor (GR15/GR85) (Quackgrass; [2]): 1.5
GR85 Rate (seedling johnsongrass; Table XVI): 0.37 Kg/Ha
selectivity factor (GR15/GR85) (seedling johnsongrass; in lima beans, Table XVI): > 3
selectivity factor (GR15/GR85) (seedling johnsongrass; in peanuts, Table XVI): 1.5
GR85 Rate (shattercane; Table XVI): 0.56 Kg/Ha
selectivity factor (GR15/GR85) (shattercane; in lima beans, Table XVI): > 2
selectivity factor (GR15/GR85) (shattercane; in peanuts, Table XVI): 1
GR85 Rate (red rice; Table XVI): 0.53 Kg/Ha
selectivity factor (GR15/GR85) (red rice; in lima beans, Table XVI): > 2.1
selectivity factor (GR15/GR85) (red rice; in peanuts, Table XVI): 1.1
GR85 Rate (alexandergrass; Table XV): 0.7 Kg/Ha
selectivity factor (GR15/GR85) (alexandergrass; Table XV): > 1.6
GR85 Rate (fall panicum; Table XVI): 0.28 Kg/Ha
selectivity factor (GR15/GR85) (fall panicum; in lima beans, Table XVI): > 4
selectivity factor (GR15/GR85) (fall panicum; in peanuts, Table XVI): 2
GR85 Rate (Texas panicum; Table XVI): 0.53 Kg/Ha
selectivity factor (GR15/GR85) (Texas panicum; in lima beans, Table XVI): > 2.1
selectivity factor (GR15/GR85) (Texas panicum; in peanuts, Table XVI): 1.1
GR85 Rate (itchgrass; Table XVI): 0.56 Kg/Ha
selectivity factor (GR15/GR85) (itchgrass; in lima beans, Table XVI): > 2
selectivity factor (GR15/GR85) (itchgrass; in peanuts, Table XVI): 1

CC(C)OCN(C(=O)CCl)c1ccccc1C(F)(F)F [Example 2, N--(isopropoxymethyl)-2'-trifluoromethyl-2-chloroacetanilide]
GR15 (soybeans; [3]): > 2.2 Kg/Ha
GR15 (soybeans; Florida muck, Table XVII A): > 2.2 Kg/Ha
GR15 (soybeans; Florida sand, Table XVII A): 1.7 Kg/Ha
GR15 (soybeans; Ray silt loam, Table XVII A): 2.2 Kg/Ha
GR15 (soybeans; Sarpy silty clay, Table XVII A): > 2.2 Kg/Ha
GR15 (corn; Table IV, Replicate #1): 3.1 Kg/Ha
GR15 (corn; Table IV, Replicate #2): 0.78 Kg/Ha
GR85 Rate (wild proso millet; Table XIV): 1.1 Kg/Ha
selectivity factor (GR15/GR85) (wild proso millet; in soybeans, Table XIV): > 1.0
GR15 Rate (rape; Table VI): 1.9 Kg/Ha
GR85 (Quackgrass; [3]): 0.56 Kg/Ha
GR85 (Quackgrass; Florida muck, Table XVII A): 0.95 Kg/Ha
GR85 (Quackgrass; Florida sand, Table XVII A): 0.22 Kg/Ha
GR85 (Quackgrass; Ray silt loam, Table XVII A): 0.28 Kg/Ha
GR85 (Quackgrass; Sarpy silty clay, Table XVII A): 0.43 Kg/Ha
GR85 (Quackgrass; Wabash silty clay, Table XVII A): 0.34 Kg/Ha
selectivity factor (GR15/GR85) (Quackgrass; [3]): > 4
selectivity factor (GR15/GR85) (Quackgrass; Florida muck, Table XVII A): > 2
selectivity factor (GR15/GR85) (Quackgrass; Florida sand, Table XVII A): 7.5
selectivity factor (GR15/GR85) (Quackgrass; Ray silt loam, Table XVII A): 8
selectivity factor (GR15/GR85) (Quackgrass; Sarpy silty clay, Table XVII A): > 5
GR85 Rate (seedling johnsongrass; Table XIV): 0.28 Kg/Ha
selectivity factor (GR15/GR85) (seedling johnsongrass; in soybeans, Table XIV): > 4.0
GR85 Rate (shattercane; Table XIV): 0.93 Kg/Ha
selectivity factor (GR15/GR85) (shattercane; in soybeans, Table XIV): > 1.12
GR85 Rate (red rice; Table XIV): 0.14 Kg/Ha
selectivity factor (GR15/GR85) (red rice; in soybeans, Table XIV): > 8.0
GR85 Rate (alexandergrass; Table XIV): > 1.1 Kg/Ha
GR85 Rate (fall panicum; Table XIV): < 0.07 Kg/Ha
selectivity factor (GR15/GR85) (fall panicum; in soybeans, Table XIV): > 16
GR85 Rate (Texas panicum; Table XIV): > 1.12 Kg/Ha
GR85 Rate (itchgrass; Table XIV): > 1.1 Kg/Ha
